Measured values from PMC6492070 (Frontiers in Pharmacology, 2019).
“And” between values parts separate entries of the source, which are not always exact repeats. Equal entries are not always repeated. Where two headings read alike, the source gives them in different places.

Legend:
CYP2D [1] = system: CYP2D
CYP2D [2] = assay: in vitro; details: both, hybrid sow × Piétrain boar, pig
CYP2C [3] = system: CYP2C
CYP3A [4] = system: CYP3A
CYP2D [5] = system: CYP2D; remark: listed apart in the source
CYP2C [6] = system: CYP2C; remark: listed apart in the source
CYP3A [7] = system: CYP3A; remark: listed apart in the source
[8] = pig, in vivo; cited from earlier work
IPEC-J2 cells = details: cited from earlier work
CYP2C [9] = assay: in vitro; details: both, hybrid sow × Piétrain boar, pig
CYP3A [10] = assay: in vitro; details: both, pig
[11] = both, hybrid sow × Piétrain boars, pig, in vivo
in vivo = details: both, hybrid sow × Piétrain boars, pig; for k el: Ke
CYP2A19 [12] = system: CYP2A19
CYP2A19 [13] = assay: in vitro; details: both, hybrid sow × Piétrain boar, pig
[14] = both, hybrid sow × Piétrain boar, pig

For `COc1ccc2c(c1)[C@]13CCCC[C@@H]1[C@H](C2)N(C)CC3` [DXM, Dextromethorphan, reference compound], the Vmax (CYP2D [1]) was 1971 (39.7) pmol/mg protein/min and the Km (CYP2D [2]) was 2 µM.
With `CC(=O)OC[C@]12C[C@H](OC(=O)CC(C)C)C(C)=C[C@H]1O[C@@H]1[C@H](O)[C@@H](OC(C)=O)[C@@]2(C)[C@]12CO2` [T-2, T-2 toxin] the “Formed metabolite OH-TB” value (CYP2C [3]) was 8.9 ng/mL and 12.9 ng/mL and 13.4 ng/mL, the OH-TB formation rate (CYP2C [3]) was 12.4325 pmol/min/mg protein and 18.0201 pmol/min/mg protein and 18.7185 pmol/min/mg protein and the “OH-TB formation rate, PRE” value (CYP2C [3]) was 12.0134 pmol/min/mg protein and 12.2928 pmol/min/mg protein. The “OH-TB, pre-incubation (ruwe data)” value (CYP2C [3]) was 8.6 and 8.8, the “Residual CYP enzyme activity, TB (CYP2C)” value (CYP2C [3]) was 46.3% and 62.3% and the “Formed metabolite OH-CZ” value (CYP2E) was 25.3 ng/mL and 26.9 ng/mL. The OH-CZ formation rate (CYP2E) was 272.688 pmol/min/mg protein and 289.933 pmol/min/mg protein, the “OH-CZ formation rate, PRE” value (CYP2E) was 237.12 pmol/min/mg protein and 232.809 pmol/min/mg protein and 217.719 pmol/min/mg protein and the “OH-CZ, pre-incubation (ruwe data)” value (CYP2E) was 22 and 21.6 and 20.2. For the same compound, the “Residual CYP enzyme activity, CZ (CYP2E)” value (CYP2E) was 65.4% and 79.5%, the “Formed metabolite OH-CM” value (CYP2A) was 6.5 ng/mL and 7.1 ng/mL and 6.9 ng/mL and the OH-CM formation rate (CYP2A) was 80.1776 pmol/min/mg protein and 87.5786 pmol/min/mg protein and 85.1116 pmol/min/mg protein. The “OH-CM formation rate, PRE” value (CYP2A) was 65.3756 pmol/min/mg protein and 55.5076 pmol/min/mg protein and 64.1421 pmol/min/mg protein, the “OH-CM, pre-incubation (ruwe data)” value (CYP2A) was 5.3 and 4.5 and 5.2 and the “Residual CYP enzyme activity, CM (CYP2A)” value (CYP2A) was 72.5% and 99.1%. For the same compound, the “Formed metabolite PAR” value (CYP1A) was 47.3 ng/mL and 46.6 ng/mL and 46.9 ng/mL, the PAR formation rate (CYP1A) was 625.827 pmol/min/mg protein and 616.565 pmol/min/mg protein and 620.535 pmol/min/mg protein and the “PAR formation rate, PRE” value (CYP1A) was 523.948 pmol/min/mg protein and 490.871 pmol/min/mg protein and 492.194 pmol/min/mg protein. For the same compound, the “PAR, pre-incubation (ruwe data)” value (CYP1A) was 39.6 and 37.1 and 37.2, the “Residual CYP enzyme activity, PH (CYP1A)” value (CYP1A) was 78.2% and 96.7% and the “Formed metabolite OH-MDZ” value (CYP3A [4]) was 163 ng/mL and 160.8 ng/mL and 268.8 ng/mL. The OH-MDZ formation rate (CYP3A [4]) was 953.858 pmol/min/mg protein and 940.984 pmol/min/mg protein and 1572.99 pmol/min/mg protein, the “OH-MDZ formation rate, PRE” value (CYP3A [4]) was 348.773 pmol/min/mg protein and 383.884 pmol/min/mg protein and 308.395 pmol/min/mg protein and the “OH-MDZ, pre-incubation (ruwe data)” value (CYP3A [4]) was 59.6 and 65.6 and 52.7. For the same compound, the DEX formation rate (CYP2D [5]) was 838.482 pmol/min/mg protein and 812.838 pmol/min/mg protein and 850.138 pmol/min/mg protein, the “DEX formation rate, PRE” value (CYP2D [5]) was 660.528 pmol/min/mg protein and 864.903 pmol/min/mg protein and 852.469 pmol/min/mg protein and the “DEX, pre-incubation (ruwe data)” value (CYP2D [5]) was 85 and 111.3 and 109.7. For the same compound, the “Formed metabolite DEX” value (CYP2D [5]) was 107.9 ng/mL and 104.6 ng/mL and 109.4 ng/mL, the “Residual CYP enzyme activity, DXM (CYP2D)” value (CYP2D [5]) was 94.2% and 99.1% and the Inhibition type (CYP2C [6]) was “Full competitive”. For the same compound, the Ki (CYP2C [6]) was 14.8 µM, the Residual activity (CYP2C [6]) was 24.0 (1.38) % and the Inhibition type (CYP3A [7]) was “Full non-competitive”. The Ki (CYP3A [7]) was 27 µM, the Mean elimination half-life [8] was 0.23 h and the “Parent toxin in plasma and liver” value [8] was “no parent toxin could be detected”. For the same compound, the “Concentration significantly affecting epithelial integrity” value (IPEC-J2 cells) was 10 ng/mL and 21.43 nM.
For `C[C@H]1CCCC(=O)CCC/C=C/c2cc(O)cc(O)c2C(=O)O1` [ZEA, zearalenone], the Inhibition type (CYP2C [6]) was “Partial competitive”, the α (CYP2C [6]) was 9.5 (1.05) and the Residual activity (CYP2C [6]; [14]) was 18.7 (0.35) %. For the same compound, the Inhibition type (CYP3A [7]) was “Partial mixed”, the α (CYP3A [7]) was 3.8 (1.43) and the β (CYP3A [7]) was 0.26 (0.064). For the same compound, the “mean OH-MDZ formation rate as % of [mycotoxine]=0” value (CYP3A [7]; both, hybrid sow × Piétrain boar cross, pig) was 26.7981, the Residual activity (CYP3A [7]; both, hybrid sow × Piétrain boars, pig, microsomes) was 27.0 (3.16) % and the “DEX formation rate as % of [mycotoxine]=0” value (CYP2D [1]) was 37.1724. For the same compound, the Inhibition type (CYP2D [1]) was “Full non-competitive”, the Ki (CYP2C [9]) was 0.54 µM and the activity (CYP2C [9]; Residual activity) was less than 30%. It also gave a Ki (CYP3A [10]; hybrid sow × Piétrain boars, microsomes) of 1.1 µM, an activity (CYP3A [10]; hybrid sow × Piétrain boars, microsomes, Residual activity) of less than 30% and a Ki (CYP2D [2]) of 55.4 µM. For the same compound, the activity (CYP2D [2]) was 32%.
With `Cc1ncc2n1-c1ccc(Cl)cc1C(c1ccccc1F)=NC2` [midazolam] the Vmax (CYP3A [7]) was 2155 (73.8) pmol/mg protein/min and 1899 (88.2) pmol/mg protein/min, the Km (CYP3A [7]; [14]) was 11.3 µM and the Cl ([11]; iv, 0.036 mg/kg) was 45.5 (22.75) L/h. For the same compound, the “AUC (0-inf) in the ZEA group, times higher on average” value ([11]; po) was “about 2.5 times”, the “Average Ka of the T-2 group, times higher compared to the control group” value ([11]; po) was “about 2.5 times” and the AUC(0-inf) (in vivo; iv, 0.036 mg/kg) was 11.5 ng·h/mL. For the same compound, the clearance (in vivo; iv, 0.036 mg/kg, Cl) was 767 mL/min, the k el (in vivo; iv, 0.036 mg/kg) was 0.000231 s⁻¹ and the MRT (in vivo; iv, 0.036 mg/kg) was 0.71 h. It also gave a Vd (in vivo; iv, 0.036 mg/kg, Vd) of 60.8 L, an AUC(0-inf) (in vivo; iv) of 18 ng·h/mL and a k el (in vivo; po, 0.15 mg/kg) of 0.000108 s⁻¹. The MRT (in vivo; po, 0.15 mg/kg) was 3.58 h, the Tmax (in vivo; po, 0.15 mg/kg, Mean Tmax after removing the observation) was 0.714 ± 0.559 h and the Tmax (in vivo; po, 0.15 mg/kg, Tmax) was 1.15 h. For the same compound, the Tmax (in vivo; po, 0.15 mg/kg, Tmax of one pig) was 4 h, the Tmax (in vivo; po, 0.15 mg/kg, Tmax range) was 0.67 to 2 h and the Tmax (in vivo; po, 0.15 mg/kg, Tmax range of the other pigs) was 0.16 to 1.5 h. The Km (CYP3A [10]; hybrid sow × Piétrain boar, Km) was 12.3 µM.
For `CCCC[C@@H](C)[C@@H](OC(=O)C[C@@H](CC(=O)O)C(=O)O)[C@H](C[C@@H](C)C[C@H](O)CCCC[C@@H](O)C[C@H](O)[C@H](C)N)OC(=O)C[C@@H](CC(=O)O)C(=O)O` [FB1, fumonisin B1], the Inhibition type (CYP2A19 [12]) was “Full mixed”, the Ki (CYP2A19 [12]) was 2.3 µM and the Residual activity (CYP2A19 [12]) was 22.8 (3.50) %. For the same compound, the α (CYP2A19 [12]) was 14.0 (4.30) and the “Inhibition (efficacy)” value (CYP2A19 [12]; microsomes) was 17%.
In the case of `O=c1ccc2ccccc2o1` [CM, coumarin, reference compound], the Vmax (CYP2A19 [12]) is reported as 359 (4.1) pmol/mg protein/min and the Km (CYP2A19 [13]) is reported as 0.91 µM.
With `CCCCNC(=O)NS(=O)(=O)c1ccc(C)cc1` [TB, tolbutamide, reference compound] the Vmax (CYP2C [6]) was 160 (16.0) pmol/mg protein/min and 132 (17.9) pmol/mg protein/min, the Km (CYP2C [6]; [14]) was 804 µM and the Km (CYP2C [9]; Km) was 1070 µM.
